Data taken from patent US8293729B2 (Boehringer Ingelheim International GmbH, priority 2009, dated 2012).

These molecules were tested against T1, human GPR119 receptor (Homo sapiens, UniProt Q8TDV5, S329A/T327A) (assay: cAMP assay (LANCE cAMP-384) in HEK293 cells stably expressing mutant human GPR119 receptor). Conditions: HEK293, 20 min; 10 μM; the 28th table; read-out: stimulation in % at 10 μM.
T1 construct: N-terminal leader […]; expressed in transfected cells
T1 sequence (Q8TDV5 with tags, fused parts or gaps T327A/S329A): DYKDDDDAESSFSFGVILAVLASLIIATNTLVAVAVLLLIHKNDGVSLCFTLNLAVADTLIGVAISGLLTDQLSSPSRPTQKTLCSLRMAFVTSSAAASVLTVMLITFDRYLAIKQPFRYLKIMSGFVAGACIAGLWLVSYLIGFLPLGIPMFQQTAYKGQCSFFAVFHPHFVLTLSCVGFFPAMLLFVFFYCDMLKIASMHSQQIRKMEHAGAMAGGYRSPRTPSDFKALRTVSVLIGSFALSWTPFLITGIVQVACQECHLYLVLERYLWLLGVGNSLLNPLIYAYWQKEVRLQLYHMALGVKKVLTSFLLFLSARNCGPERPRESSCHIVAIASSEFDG
Assay type: cell-based
Method in brief: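 HEK293 cells stably expressing human GPR119 (T327A/S329A, modified N-terminus), 1000 cells/well, exposed to compound for 20 min at 37° C. cAMP quantified by LANCE TR-FRET against a standard curve; EC50 from 12 points, 30 μM to 100 pM, or % stimulation at 10 μM.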

Q: With `CC(C)OC(=O)N1CCC(ON=C2CCN(c3ncc(N4CCCC4=O)cn3)CC2)CC1` [Example 51-6] as the molecule, how does the activation at 10 µM read?
A: 98%

Same assay, conditions: HEK293, 20 min; single concentration 10 μM; given where no EC50 value could be determined; read-out: % stimulation at 10 μM

Q: For `CNCc1cc(F)c(N2CCC(=NOC3CCN(C(=O)OC(C)C)CC3)CC2)cc1F` [Example 5-6], which activation at 10 µM is on record?
A: 78%

Same assay, conditions: cAMP accumulation, HEK293 cells stably expressing mutant human GPR119; read-out: EC50

Q: Which EC50 does the source give for `CC(C)OC(=O)N1CCC(ON=C2CCN(c3nccc(N(C)C)n3)CC2)CC1` [Example 2-44] here?
A: > 10000 nM

Q: `CC(C)OC(=O)N1CCC(ON=C2CCN(c3cc(F)ccc3C=O)CC2)CC1` [Example 2-19] was tested. Which EC50 did it give?
A: 345 nM

Q: How did the EC50 turn out when `CC(C)OC(=O)N1CCC(ON=C2CCN(c3cc(F)c(/C=C/C(=O)O)cc3F)CC2)CC1` [Example 40-1, 4-{1-[4-((E)-2-Carboxy-vinyl)-2,5-difluoro-phenyl]-piperidin-4-ylideneaminooxy}-piperidine-1-carboxylic acid isopropyl ester] was run?
A: 2570 nM

Q: How did the EC50 turn out when `CC(=O)N(C)Cc1cc(F)c(N2CCC(=NOC3CCN(C(=O)OC(C)C)CC3)CC2)cc1F` [Example 18-1, 4-(1-{4-[(Acetyl-methyl-amino)-methyl]-2,5-difluoro-phenyl}-piperidin-4-ylideneaminooxy)-piperidine-1-carboxylic acid isopropyl ester] was run?
A: 127 nM

Q: With `CC(C)OC(=O)N1CCC(ON=C2CCN(c3ccc(S(C)(=O)=O)cc3)CC2)CC1` [Example 2-16] as the molecule, how does the EC50 read?
A: 328 nM

Q: How did the EC50 turn out when `Cc1cc(N2CCC(=NOC3CCN(C(=O)OC(C)C)CC3)CC2)ccn1` [Example 2-6] was run?
A: 1480 nM

Q: Which EC50 does the source give for `CC(C)OC(=O)N1CCC(ON=C2CCN(c3cc(F)c(-c4cnc(N)nc4)cc3F)CC2)CC1` [Example 27-15] here?
A: 516 nM

Q: `CCS(=O)(=O)NCc1cc(F)c(N2CCC(=NOC3CCN(C(=O)OC(C)C)CC3)CC2)cc1F` [Example 16-6] was tested. Which EC50 did it give?
A: 113 nM

Q: With `Cc1nnn(Cc2cc(F)c(N3CCC(=NOC4CCN(C(=O)OC(C)C)CC4)CC3)cc2F)n1` [Example 14-16] as the molecule, how does the EC50 read?
A: 256 nM

Q: With `CC(C)OC(=O)N1CCC(ON=C2CCN(c3cc(F)c(C4SCCC[S+]4[O-])cc3F)CC2)CC1` (mixture of isomers) [Example 21-1, 4-{1-[2,5-Difluoro-4-(1-oxo-1 lambda*4*-[1,3]dithian-2-yl)-phenyl]-piperidin-4-ylideneaminooxy}-piperidine-1-carboxylic acid isopropyl ester] as the molecule, how does the EC50 read?
A: 143 nM

Q: Which EC50 does the source give for `CC(=O)c1cc(F)c(N2CCC(=NOC3CCN(C(=O)OC(C)C)CC3)CC2)cc1F` [Example 2-23] here?
A: 375 nM

Q: Which EC50 does the source give for `CC(C)OC(=O)N1CCC(ON=C2CCN(c3cc(F)c(CNCCC(=O)O)cc3F)CC2)CC1` [Example 7-1, 4-(1-{4-[(2-Carboxy-ethylamino)-methyl]-2,5-difluoro-phenyl}-piperidin-4-ylideneaminooxy)-piperidine-1-carboxylic acid isopropyl ester] here?
A: 1150 nM

Q: With `CC(C)OC(=O)N1CCC(ON=C2CCN(c3ncc(Br)cn3)CC2)CC1` [Example 2-17] as the molecule, how does the EC50 read?
A: 1180 nM

Q: With `Cc1ccn(Cc2cc(F)c(N3CCC(=NOC4CCN(C(=O)OC(C)C)CC4)CC3)cc2F)n1` [Example 14-9] as the molecule, how does the EC50 read?
A: 257 nM

Q: Which EC50 does the source give for `CC(C)OC(=O)N1CCC(ON=C2CCN(c3cccc(S(C)(=O)=O)c3)CC2)CC1` [Example 32-3] here?
A: > 10000 nM

Q: For `CC(C)OC(=O)N1CCC(ON=C2CCN(c3cc(F)c(CNS(N)(=O)=O)cc3F)CC2)CC1` [Example 17-1], which EC50 is on record?
A: 312 nM

Q: `CC(CO)CNC(=O)c1cc(F)c(N2CCC(=NOC3CCN(C(=O)OC(C)C)CC3)CC2)cc1F` (stereo not drawn) [Example 2-77] was tested. Which EC50 did it give?
A: 47 nM

Q: `Cc1ccc(-c2cc(F)c(N3CCC(=NOC4CCN(C(=O)OC(C)C)CC4)CC3)cc2F)cn1` [Example 27-30] was tested. Which EC50 did it give?
A: 435 nM

Q: For `CC(C)OC(=O)N1CCC(ON=C2CCN(c3ncc4c(n3)CCN(S(C)(=O)=O)C4)CC2)CC1` [Example 59b, 4-[1-(6-Methanesulfonyl-5,6,7,8-tetrahydro-pyrido[4,3-d]pyrimidin-2-yl)-piperidin-4-ylideneaminooxy]-piperidine-1-carboxylic acid isopropyl ester], which EC50 is on record?
A: 328 nM

Q: For `CC(C)OC(=O)N1CCC(ON=C2CCN(c3cc(F)c([N+](=O)[O-])cc3F)CC2)CC1` [Example 2-62], which EC50 is on record?
A: 304 nM

Q: How did the EC50 turn out when `CC(C)OC(=O)N1CCC(ON=C2CCN(c3cc(F)c(-c4ccc5[nH]ccc5c4)cc3F)CC2)CC1` [Example 27-32] was run?
A: 1380 nM

Same assay, conditions: the 15th table; read-out: EC50

Q: Which EC50 does the source give for `CC(C)OC(=O)N1CCC(ON=C2CCN(c3cc(F)c(C(=O)N4CCNCC4)cc3F)CC2)CC1` [Example 29-3] here?
A: 512 nM

Same assay, conditions: the 19th table; unit inferred; read-out: EC 50

Q: With `CCc1cnc(N2CCC(ON=C3CCN(c4cc(F)c(C(=O)N5CCCCC5CNC)cc4F)CC3)CC2)nc1` (stereo not drawn) [Example 29-136] as the molecule, how does the EC50 read?
A: 120 nM

Q: For `CCc1cnc(N2CCC(ON=C3CCN(c4cc(F)c(C(=O)N5CCC(N)CC5)cc4F)CC3)CC2)nc1` [Example 29-126], which EC50 is on record?
A: 469 nM

Q: For `CCc1cnc(N2CCC(ON=C3CCN(c4cc(F)c(C(=O)N5CCC[C@H]5CNC)cc4F)CC3)CC2)nc1` [Example 29-134], which EC50 is on record?
A: 437 nM

Q: With `CCc1cnc(N2CCC(ON=C3CCN(c4cc(F)c(C(=O)NCC5CCCN5)cc4F)CC3)CC2)nc1` (stereo not drawn) [Example 29-122] as the molecule, how does the EC50 read?
A: 176 nM

Q: With `CCc1cnc(N2CCC(ON=C3CCN(c4cc(F)c(C(=O)NCCC5CCNCC5)cc4F)CC3)CC2)nc1` [Example 29-112] as the molecule, how does the EC50 read?
A: 38 nM

Q: With `CCc1cnc(N2CCC(ON=C3CCN(c4cc(F)c(C(=O)NCC5CCNC5)cc4F)CC3)CC2)nc1` (stereo not drawn) [Example 29-139] as the molecule, how does the EC50 read?
A: 92 nM

Q: `CCc1cnc(N2CCC(ON=C3CCN(c4cc(F)c(C(=O)NCC5CCCN5C)cc4F)CC3)CC2)nc1` (stereo not drawn) [Example 29-137] was tested. Which EC50 did it give?
A: 212 nM

Same assay, conditions: the 26th table; read-out: EC50

Q: How did the EC50 turn out when `CC(C)OC(=O)N1CCC(ON=C2CCN(c3ncc(S(C)(=O)=O)cc3F)CC2)CC1` [Example 46-1, 4 (5′-METHYLSULFONYL-3′-FLUORO-2,3,5,6-TETRAHYDRO-[1,2′]BIPYRIDINYL-4-YLIDENEAMINOOXY)-PIPERIDINE-1-CARBOXYLIC ACID ISOPROPYL ESTER] was run?
A: 131 nM

Same assay, conditions: the 31st table; read-out: EC50

Q: With `CC(C)OC(=O)N1CCC(ON=C2CN(c3ccc(S(C)(=O)=O)cc3F)C2)CC1` [Example 61-3] as the molecule, how does the EC50 read?
A: 161 nM

Same assay, conditions: the 32nd table; read-out: EC50

Q: For `CS(=O)(=O)c1ccc(N2CCC(=NOC3CCN(c4ncccn4)CC3)CC2)c(F)c1` [Example 63-8], which EC50 is on record?
A: 238 nM

Q: `CS(=O)(=O)c1ccc(N2CCC(=NOC3CCN(c4nccc(C(F)(F)F)n4)CC3)CC2)c(F)c1` [Example 63-11] was tested. Which EC50 did it give?
A: > 10000 nM

Q: How did the EC50 turn out when `CS(=O)(=O)c1ccc(N2CCC(=NOC3CCN(c4ccncc4)CC3)CC2)c(F)c1` [Example 63-4] was run?
A: > 10000 nM

Same assay, conditions: the 33rd table; read-out: EC50

Q: Which EC50 does the source give for `CN(C)CCCOC(=O)N1CCC(ON=C2CCN(c3ccc(S(C)(=O)=O)cc3F)CC2)CC1` [Example 64-15] here?
A: > 10000 nM

Q: Which EC50 does the source give for `CS(=O)(=O)c1ccc(N2CCC(=NOC3CCN(C(=O)OC4CNC4)CC3)CC2)c(F)c1` [Example 64-33] here?
A: > 10000 nM

Q: How did the EC50 turn out when `CC(N)COC(=O)N1CCC(ON=C2CCN(c3ccc(S(C)(=O)=O)cc3F)CC2)CC1` (stereo not drawn) [Example 64-34] was run?
A: > 10000 nM

Q: With `COC(=O)[C@@H](C)COC(=O)N1CCC(ON=C2CCN(c3ccc(S(C)(=O)=O)cc3F)CC2)CC1` [Example 64-23] as the molecule, how does the EC50 read?
A: 928 nM

Same assay, conditions: the 34th table, compounds 65-1 to 65-24; read-out: EC50

Q: `CC(C)NC(=O)N1CCC(ON=C2CCN(c3ccc(S(C)(=O)=O)cc3F)CC2)CC1` [Example 65-8] was tested. Which EC50 did it give?
A: > 10000 nM

Q: How did the EC50 turn out when `CS(=O)(=O)c1ccc(N2CCC(=NOC3CCN(C(=O)Oc4ccccc4)CC3)CC2)c(F)c1` [Example 65-12] was run?
A: 57 nM

Q: Which EC50 does the source give for `CS(=O)(=O)c1ccc(N2CCC(=NOC3CCN(C(=O)c4ccc(F)cc4)CC3)CC2)c(F)c1` [Example 65-22] here?
A: 132 nM

Same assay, conditions: the 35th table, compounds 65-25 to 65-36; read-out: EC50

Q: Which EC50 does the source give for `CS(=O)(=O)c1cc(F)c(N2CCC(=NOC3CCN(C(=O)Cc4ccccc4)CC3)CC2)cc1F` [Example 65-28] here?
A: 240 nM

Same assay, conditions: the 36th table, compounds 66-1 to 66-51; read-out: EC50

Q: Which EC50 does the source give for `CC(C)CCN1CCC(ON=C2CCN(c3ccc(S(C)(=O)=O)cc3F)CC2)CC1` [Example 66-23] here?
A: > 10000 nM

Q: `CS(=O)(=O)c1ccc(N2CCC(=NOC3CCN(Cc4ccc(Br)cc4F)CC3)CC2)c(F)c1` [Example 66-44] was tested. Which EC50 did it give?
A: 753 nM

Q: Which EC50 does the source give for `CC(C)(C)CN1CCC(ON=C2CCN(c3ccc(S(C)(=O)=O)cc3F)CC2)CC1` [Example 66-22] here?
A: 1360 nM

Q: `CS(=O)(=O)c1ccc(N2CCC(=NOC3CCN(Cc4ccc(OC(F)(F)F)cc4)CC3)CC2)c(F)c1` [Example 66-42] was tested. Which EC50 did it give?
A: 503 nM

Q: With `CS(=O)(=O)c1ccc(N2CCC(=NOC3CCN(Cc4ccc(Br)cc4)CC3)CC2)c(F)c1` [Example 66-41] as the molecule, how does the EC50 read?
A: 609 nM

Same assay, conditions: the 37th table, compounds 66-52 to 66-64; read-out: EC50

Q: Which EC50 does the source give for `CCCCc1ccc(CN2CCC(ON=C3CCN(c4cc(F)c(S(C)(=O)=O)cc4F)CC3)CC2)cc1` [Example 66-57] here?
A: 29 nM

Q: `CCCc1ccc(CN2CCC(ON=C3CCN(c4cc(F)c(S(C)(=O)=O)cc4F)CC3)CC2)cc1F` [Example 66-60] was tested. Which EC50 did it give?
A: 31 nM

Same assay, conditions: the 38th table, compounds 66-65 to 66-72; read-out: EC50

Q: For `CNC(=O)c1cc(F)c(N2CCC(=NOC3CCN(Cc4ccc(-c5ccccn5)cc4)CC3)CC2)cc1F` [Example 66-65], which EC50 is on record?
A: 792 nM

Same assay, conditions: the 43rd table, compounds 75-1 to 75-38; read-out: EC50

Q: Which EC50 does the source give for `CC(C)OC(=O)N1CCC(ON=C2CCN(c3cc(F)c(CC(=O)NCCN)cc3F)CC2)CC1` [Example 75-24] here?
A: 410 nM

Same assay, conditions: the 44th table, compounds 77-1 to 77-14; read-out: EC50

Q: With `CCc1cnc(N2CCC(ON=C3CCN(c4cc(F)c(CC(=O)N5CCC[C@@H](N)C5)cc4F)CC3)CC2)nc1` [Example 77-8] as the molecule, how does the EC50 read?
A: 30 nM
